compound: Cn1nnc2c(C(N)=O)ncn2c1=O [Temozolomide] + O=C(CCCCCCC(=O)Nc1ccccc1)NO [Vorinostat] (partner 1 µM); experiment: relative viability (nuclei count vs DMSO), 5 days (fraction); higher = more cells survive; details: first compound 6.325 µM
Method in brief: (§1)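 Cells from lung cancer lines were seeded into 1536-well plates and, one day later, dosed by pin tool. Treatments were either a single drug or a fixed dose of an anchor drug with five library-drug doses (not always all listed) in √10 steps. After 5 days, nuclei were stained in a one-step fixation (final 0.05% Triton X-100, 1% formaldehyde, 1 ug/ml Hoechst) and counted on 4× images, and relative viability is the treated-to-vehicle nuclei ratio, as the median of duplicate plates.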

**Q.** With EMC-BAC-2 as the cell line, how does the relative viability read?
**A.** 0.398

**Q.** With EPLC-272H as the cell line, how does the relative viability read?
**A.** 0.407

**Q.** With H3255 as the cell line, how does the relative viability read?
**A.** 0.535

**Q.** How did the relative viability turn out when HARA was run?
**A.** 0.573

**Q.** With HCC-15 as the cell line, how does the relative viability read?
**A.** 0.695

**Q.** For HCC-44, which relative viability is on record?
**A.** 1.16

**Q.** For HCC-366, which relative viability is on record?
**A.** 0.315

**Q.** How did the relative viability turn out when HCC-827 was run?
**A.** 0.876

**Q.** HOP-62 was tested. Which relative viability did it give?
**A.** 0.456

**Q.** For IA-LM, which relative viability is on record?
**A.** 0.952

**Q.** LC-2-ad was tested. Which relative viability did it give?
**A.** 0.733

**Q.** Which relative viability does the source give for LCLC-97TM1 here?
**A.** 0.514

**Q.** Which relative viability does the source give for LCLC-103H here?
**A.** 0.732

**Q.** For LK-2, which relative viability is on record?
**A.** 0.188

**Q.** Which relative viability does the source give for LOU-NH91 here?
**A.** 0.923

**Q.** Which relative viability does the source give for NCI-H358 here?
**A.** 0.647

**Q.** For NCI-H522, which relative viability is on record?
**A.** 0.973

**Q.** With NCI-H727 as the cell line, how does the relative viability read?
**A.** 1.16

**Q.** Which relative viability does the source give for NCI-H1395 here?
**A.** 0.569

**Q.** How did the relative viability turn out when NCI-H1648 was run?
**A.** 0.457

**Q.** Which relative viability does the source give for NCI-H1793 here?
**A.** 0.692

**Q.** Which relative viability does the source give for NCI-H1944 here?
**A.** 0.474

**Q.** Which relative viability does the source give for NCI-H2170 here?
**A.** 0.461

**Q.** Which relative viability does the source give for NCI-H2342 here?
**A.** 0.742

**Q.** With SK-MES-1 as the cell line, how does the relative viability read?
**A.** 1.19

**Q.** With SW 900 as the cell line, how does the relative viability read?
**A.** 0.373

same assay, conditions: first compound 20 µM

**Q.** For 201T, which relative viability is on record?
**A.** 0.867

**Q.** How did the relative viability turn out when A-427 was run?
**A.** 0.569

**Q.** ABC-1 was tested. Which relative viability did it give?
**A.** 1.08

**Q.** For BEN, which relative viability is on record?
**A.** 0.552

**Q.** CAL-12T was tested. Which relative viability did it give?
**A.** 0.628

**Q.** How did the relative viability turn out when COR-L23 was run?
**A.** 0.371

**Q.** For COR-L 105, which relative viability is on record?
**A.** 0.7

**Q.** ChaGo-K-1 was tested. Which relative viability did it give?
**A.** 0.733

**Q.** EKVX was tested. Which relative viability did it give?
**A.** 0.395

**Q.** How did the relative viability turn out when EMC-BAC-2 was run?
**A.** 0.437

**Q.** With EPLC-272H as the cell line, how does the relative viability read?
**A.** 0.508

**Q.** How did the relative viability turn out when H3255 was run?
**A.** 0.23

**Q.** Which relative viability does the source give for HARA here?
**A.** 0.521

**Q.** HCC-15 was tested. Which relative viability did it give?
**A.** 0.806

**Q.** For HCC-44, which relative viability is on record?
**A.** 1.06

**Q.** Which relative viability does the source give for HCC-78 here?
**A.** 0.431

**Q.** For HCC-366, which relative viability is on record?
**A.** 0.351

**Q.** For HCC-827, which relative viability is on record?
**A.** 0.169

**Q.** How did the relative viability turn out when HOP-62 was run?
**A.** 0.795

**Q.** With IA-LM as the cell line, how does the relative viability read?
**A.** 1.03

**Q.** LC-2-ad was tested. Which relative viability did it give?
**A.** 0.668

**Q.** For LCLC-97TM1, which relative viability is on record?
**A.** 0.628

**Q.** With LCLC-103H as the cell line, how does the relative viability read?
**A.** 0.762

**Q.** How did the relative viability turn out when LK-2 was run?
**A.** 0.237

**Q.** For LOU-NH91, which relative viability is on record?
**A.** 0.797

**Q.** NCI-H358 was tested. Which relative viability did it give?
**A.** 0.553

**Q.** For NCI-H522, which relative viability is on record?
**A.** 0.92

**Q.** For NCI-H727, which relative viability is on record?
**A.** 1.06

**Q.** With NCI-H1395 as the cell line, how does the relative viability read?
**A.** 0.673

**Q.** For NCI-H1648, which relative viability is on record?
**A.** 0.375

**Q.** With NCI-H1793 as the cell line, how does the relative viability read?
**A.** 0.503

**Q.** For NCI-H1944, which relative viability is on record?
**A.** 0.517

**Q.** With NCI-H2170 as the cell line, how does the relative viability read?
**A.** 0.288

**Q.** For NCI-H2342, which relative viability is on record?
**A.** 0.811

**Q.** Which relative viability does the source give for SK-MES-1 here?
**A.** 1.12

**Q.** SW 900 was tested. Which relative viability did it give?
**A.** 0.344

compound: Cn1nnc2c(C(N)=O)ncn2c1=O [Temozolomide] + Cc1nc(Nc2ncc(C(=O)Nc3c(C)cccc3Cl)s2)cc(N2CCN(CCO)CC2)n1 [Dasatinib] (partner 0.075 µM); experiment: as above; details: first compound 0.2 µM
Method in brief: as §1

**Q.** How did the relative viability turn out when 201T was run?
**A.** 0.584

**Q.** With A-427 as the cell line, how does the relative viability read?
**A.** 0.736

**Q.** For ABC-1, which relative viability is on record?
**A.** 0.621

**Q.** BEN was tested. Which relative viability did it give?
**A.** 0.285

**Q.** How did the relative viability turn out when CAL-12T was run?
**A.** 0.444

**Q.** Which relative viability does the source give for COR-L23 here?
**A.** 0.635

**Q.** With COR-L 105 as the cell line, how does the relative viability read?
**A.** 0.285

**Q.** ChaGo-K-1 was tested. Which relative viability did it give?
**A.** 0.605

**Q.** With EMC-BAC-2 as the cell line, how does the relative viability read?
**A.** 0.336

**Q.** EPLC-272H was tested. Which relative viability did it give?
**A.** 0.368

**Q.** How did the relative viability turn out when HARA was run?
**A.** 0.238

**Q.** With HCC-15 as the cell line, how does the relative viability read?
**A.** 0.74

**Q.** Which relative viability does the source give for HCC-78 here?
**A.** 0.363

**Q.** HCC-366 was tested. Which relative viability did it give?
**A.** 0.661

**Q.** How did the relative viability turn out when HCC-827 was run?
**A.** 0.256

**Q.** For HOP-62, which relative viability is on record?
**A.** 0.744

**Q.** LC-2-ad was tested. Which relative viability did it give?
**A.** 0.628
